Source: ChEMBL document CHEMBL1201862, “PubChem BioAssay data set” (2004)
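The compound was tested at five concentrations on cells cultured in 96-well plates, with a 48-hour exposure period. GI50 is the concentration that inhibits growth by half.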 The source made the active and inactive calls. Rule as the data show it: active = GI50 up to about 1.1 µM and inactive = higher.

How the values were obtained:
Experiment in all cases: inhibition of tumour cell growth, NCI panel, 48 h
[1] = tested on: UO-31
[2] = tested on: MDA-MB-435
[3] = tested on: NCI-H522
[4] = tested on: LOX IMVI
[5] = tested on: NCI/ADR-RES
[6] = tested on: MDA-MB-231
[7] = tested on: NCI-H460
[8] = tested on: SK-MEL-2
[9] = tested on: SW-620
[10] = tested on: OVCAR-5
[11] = tested on: SR
[12] = tested on: U-251
[13] = tested on: HCT-15
[14] = tested on: T47D
[15] = tested on: A549
[16] = tested on: CCRF-CEM
[17] = tested on: K562
[18] = tested on: MDA-N
[19] = tested on: MOLT-4
[20] = tested on: HOP-92
[21] = tested on: Hs-578T
[22] = tested on: SK-MEL-5
[23] = tested on: HCC 2998
[24] = tested on: PC-3
[25] = tested on: IGROV-1
[26] = tested on: OVCAR-3
[27] = tested on: TK-10
[28] = tested on: ACHN
[29] = tested on: SNB-19
[30] = tested on: M14
[31] = tested on: HOP-62
[32] = tested on: NCI-H226
[33] = tested on: NCI-H23
[34] = tested on: HT-29
[35] = tested on: CAKI-1
[36] = tested on: RPMI-8226
[37] = tested on: DU-145
[38] = tested on: SNB-75
[39] = tested on: SK-OV-3
[40] = tested on: COLO 205
[41] = tested on: OVCAR-8
[42] = tested on: HL-60
[43] = tested on: SF-295
[44] = tested on: SK-MEL-28
[45] = tested on: SN12C
[46] = tested on: OVCAR-4
[47] = tested on: HCT-116
[48] = tested on: UACC-257
[49] = tested on: A498
[50] = tested on: EKVX
[51] = tested on: Malme-3M
[52] = tested on: MCF7
[53] = tested on: SF-539
[54] = tested on: UACC-62
[55] = tested on: RXF 393
[56] = tested on: KM12
[57] = tested on: 786-0
[58] = tested on: SF-268

OCc1cn(C(c2ccccc2)(c2ccccc2)c2ccccc2)cn1
GI50 [1]: > 100 µM (inactive) | GI50 [2]: > 100 µM (inactive) | GI50 [3]: > 100 µM (inactive) | GI50 [4]: 66.7 µM (inactive) | GI50 [5]: > 100 µM (inactive) | GI50 [6]: > 100 µM (inactive) | GI50 [7]: > 100 µM (inactive) | GI50 [8]: > 100 µM (inactive) | GI50 [9]: > 100 µM (inactive) | GI50 [10]: > 100 µM (inactive) | GI50 [11]: > 100 µM (inactive) | GI50 [12]: 50.9 µM (inactive) | GI50 [13]: > 100 µM | GI50 [14]: > 100 µM (inactive) | GI50 [15]: > 100 µM (inactive) | GI50 [16]: > 100 µM (inactive) | GI50 [17]: > 100 µM (inactive) | GI50 [18]: > 100 µM (inactive) | GI50 [19]: > 100 µM (inactive) | GI50 [20]: 29.7 µM (inactive) | GI50 [21]: 33.7 µM (inactive) | GI50 [22]: > 100 µM (inactive) | GI50 [23]: > 100 µM (inactive) | GI50 [24]: 27.5 µM (inactive) | GI50 [25]: > 100 µM (inactive) | GI50 [26]: > 100 µM (inactive) | GI50 [27]: > 100 µM (inactive) | GI50 [28]: 72.4 µM (inactive) | GI50 [29]: > 100 µM (inactive) | GI50 [30]: > 100 µM (inactive) | GI50 [31]: 44.5 µM (inactive) | GI50 [32]: > 100 µM (inactive) | GI50 [33]: > 100 µM (inactive) | GI50 [34]: > 100 µM (inactive) | GI50 [35]: 91.6 µM (inactive) | GI50 [36]: > 100 µM (inactive) | GI50 [37]: > 100 µM (inactive) | GI50 [38]: 22.2 µM (inactive) | GI50 [39]: 66.4 µM (inactive) | GI50 [40]: > 100 µM (inactive) | GI50 [41]: > 100 µM (inactive) | GI50 [42]: > 100 µM (inactive) | GI50 [43]: 32.3 µM (inactive) | GI50 [44]: > 100 µM (inactive) | GI50 [45]: > 100 µM (inactive) | GI50 [46]: > 100 µM (inactive) | GI50 [47]: > 100 µM (inactive) | GI50 [48]: > 100 µM (inactive)

COc1ccc(CC2C3=C(CCN2C(=O)C2CCC2)CC2(CC3)OCCO2)cc1O (centres undefined)
GI50 [1]: 0.182 µM (active) | GI50 [2]: 6.7 µM (inactive) | GI50 [3]: 17.9 µM (inactive) | GI50 [4]: > 100 µM (inactive) | GI50 [5]: 16.3 µM (inactive) | GI50 [6]: 40.8 µM (inactive) | GI50 [49]: 26.7 µM (inactive) | GI50 [7]: 27.7 µM (inactive) | GI50 [8]: 49.3 µM (inactive) | GI50 [9]: 31.3 µM (inactive) | GI50 [10]: > 100 µM (inactive) | GI50 [11]: 10.5 µM (inactive) | GI50 [12]: 39.9 µM (inactive) | GI50 [13]: 14.9 µM | GI50 [14]: 44.8 µM (inactive) | GI50 [15]: 40.9 µM (inactive) | GI50 [16]: 35.2 µM (inactive) | GI50 [17]: 22.6 µM (inactive) | GI50 [18]: 12.1 µM (inactive) | GI50 [19]: 37 µM (inactive) | GI50 [20]: 62.8 µM (inactive) | GI50 [50]: 38.8 µM (inactive) | GI50 [21]: 30.6 µM (inactive) | GI50 [22]: 30.3 µM (inactive) | GI50 [23]: 28.2 µM (inactive) | GI50 [24]: 31.3 µM (inactive) | GI50 [25]: 35.1 µM (inactive) | GI50 [26]: 18 µM (inactive) | GI50 [27]: 30.7 µM (inactive) | GI50 [28]: 84.1 µM (inactive) | GI50 [29]: 45.6 µM (inactive) | GI50 [30]: 21 µM (inactive) | GI50 [31]: 33.6 µM (inactive) | GI50 [51]: 27.9 µM (inactive) | GI50 [32]: 34.8 µM (inactive) | GI50 [52]: 28.6 µM (inactive) | GI50 [33]: 19.2 µM (inactive) | GI50 [53]: 27.9 µM (inactive) | GI50 [34]: 29 µM (inactive) | GI50 [35]: 36.6 µM (inactive) | GI50 [54]: 46.1 µM (inactive) | GI50 [36]: 36.6 µM (inactive) | GI50 [37]: 26.5 µM (inactive) | GI50 [38]: 15 µM (inactive) | GI50 [39]: 30.5 µM (inactive) | GI50 [40]: 22.8 µM (inactive) | GI50 [41]: 58.5 µM (inactive) | GI50 [42]: 18.8 µM (inactive) | GI50 [55]: 15.7 µM (inactive) | GI50 [43]: 20.5 µM (inactive) | GI50 [44]: 55.2 µM (inactive) | GI50 [56]: 31.3 µM (inactive) | GI50 [57]: 35.2 µM (inactive) | GI50 [45]: 29.6 µM (inactive) | GI50 [46]: 41.4 µM (inactive) | GI50 [47]: 34.6 µM (inactive) | GI50 [58]: 35.2 µM (inactive) | GI50 [48]: 30.5 µM (inactive)

Clc1cc(C(c2cc(Cl)sc2Cl)c2cc(Cl)sc2Cl)c(Cl)s1
GI50 [1]: > 100 µM (inactive) | GI50 [2]: > 100 µM (inactive) | GI50 [3]: > 100 µM (inactive) | GI50 [4]: > 100 µM (inactive) | GI50 [5]: > 100 µM (inactive) | GI50 [6]: > 100 µM (inactive) | GI50 [49]: > 100 µM (inactive) | GI50 [7]: > 100 µM (inactive) | GI50 [8]: > 100 µM (inactive) | GI50 [9]: > 100 µM (inactive) | GI50 [10]: > 100 µM (inactive) | GI50 [11]: > 100 µM (inactive) | GI50 [12]: > 100 µM (inactive) | GI50 [13]: > 100 µM | GI50 [14]: > 100 µM (inactive) | GI50 [15]: > 100 µM (inactive) | GI50 [16]: > 100 µM (inactive) | GI50 [17]: > 100 µM (inactive) | GI50 [18]: > 100 µM (inactive) | GI50 [19]: > 81.7 µM (inactive) | GI50 [20]: > 100 µM (inactive) | GI50 [50]: > 100 µM (inactive) | GI50 [21]: > 100 µM (inactive) | GI50 [22]: > 100 µM (inactive) | GI50 [23]: > 100 µM (inactive) | GI50 [24]: > 100 µM (inactive) | GI50 [25]: > 100 µM (inactive) | GI50 [26]: > 100 µM (inactive) | GI50 [27]: > 100 µM (inactive) | GI50 [28]: > 100 µM (inactive) | GI50 [29]: > 100 µM (inactive) | GI50 [30]: > 100 µM (inactive) | GI50 [31]: > 100 µM (inactive) | GI50 [51]: 74.1 µM (inactive) | GI50 [32]: > 100 µM (inactive) | GI50 [52]: > 100 µM (inactive) | GI50 [33]: > 100 µM (inactive) | GI50 [53]: > 100 µM (inactive) | GI50 [34]: > 100 µM (inactive) | GI50 [35]: > 100 µM (inactive) | GI50 [54]: > 100 µM (inactive) | GI50 [36]: > 100 µM (inactive) | GI50 [37]: > 100 µM (inactive) | GI50 [38]: > 100 µM (inactive) | GI50 [39]: > 100 µM (inactive) | GI50 [40]: > 100 µM (inactive) | GI50 [41]: > 100 µM (inactive) | GI50 [42]: > 100 µM (inactive) | GI50 [55]: > 100 µM (inactive) | GI50 [43]: > 100 µM (inactive) | GI50 [44]: > 100 µM (inactive) | GI50 [56]: > 100 µM (inactive) | GI50 [57]: > 100 µM (inactive) | GI50 [45]: > 100 µM (inactive) | GI50 [46]: > 100 µM (inactive) | GI50 [47]: > 82.2 µM (inactive) | GI50 [58]: > 100 µM (inactive) | GI50 [48]: > 100 µM (inactive)
